Like-named read-outs stand apart in the source and are kept apart here.
Key:
Aedes aegypti [1] = assay: Example B7: evaluation of insecticide impregnated polymer surfaces; type: in vivo; details: AI content 2 wt %; for knock-down: after one hour; for mortality: 24 hours after exposure
Excerpt: (§1) Preparation of polymeric sheets: Certain methoxyacrylate were Impregnated into three polymers: LDPE (low density polyethylene), HDPE (high density polyethylene) and PP (polypropylene) in different concentrations by mixing the respective polymer with a compound at high temperatures and the resultant polymeric material were then mould into thin discs or plaques.
(§2) Twenty four hours prior to the relevant assessment intervals, three to five day old non-blood fed adult mosquitoes were taken from the culture and lightly anaesthetised with carbon dioxide. Ten females were selected and placed in a 250 ml plastic cup, retained with a net lid, provided with a 10% sucrose solution soaked in a cotton wool bung and held under culturing environmental conditions.
(§3) After twenty four hours, impregnated polymer sheets (measuring about 150 mm in diameter and about 0.1 mm in thickness) were removed from storage and wrapped around the glazed side of an 11 cm ceramic tile and held in place with an elastic band. A cup of the pre-selected mosquitoes were again lightly anaesthetised with carbon dioxide and transferred from the holding cup to the base of a 9 cm plastic Petri dish. The relevant impregnated polymer sheet was placed over the Petri dish and held in place with an elastic band. Once the mosquitoes had recovered from the anaesthetic, ca. 1 minute, the impregnated polymer sheet was placed on a holding rack, such that treated side was at an angle of […] to the horizontal.
(§4) After one hour an assessment of mosquito knockdown was made. A mosquito was said to be knocked down if it was unable to right itself once it had fallen over. The mosquitoes were lightly anaesthetised again, and removed from the Petri dish exposure chamber and returned to the holding cups. The mosquitoes were supplied with a 10% sucrose solution soaked in a cotton wool bung and held under culturing environmental conditions. An assessment of mortality was made 24 hours after exposure. A mosquito was said to be dead if it is unable to right itself once it had fallen over.

Anopheles stephensi [2] = assay: as above; type: in vivo; details: AI content 2 wt %; for knock-down: after one hour; for mortality: 24 hours after exposure
Excerpt: as §1, §2, §3, §4

[3] = system: Aedes aegypti (Yellow fever mosquito); assay: whole plant or invertebrate; details: Aedes aegypti; for pest or weed control at 20 ppm: 1 h, read-out: Knockdown; for mortality at 20 ppm: 48 h
Procedure: […] Once the deposits were dry, five non-blood fed adult female Aedes aegypti (between two to five days old) were added to each well, and sustained with a 10% sucrose solution in a cotton wool plug. Assessment of the knockdown after 1 hour, and mortality after 48 hours was carried out.
(§5) In case of multiple tests, the mean value is reported.

[4] = system: Anopheles stephensi (Indian malaria mosquito); assay: whole plant or invertebrate; details: Anopheles stephensi; for pest or weed control at 20 ppm: 1 h, read-out: Knockdown; for mortality at 20 ppm: 48 h
Procedure: […] Once the deposits were dry, five non-blood fed adult female Anopheles stephensi (between two to five days old) were added to each well, and sustained with a 10% sucrose solution in a cotton wool plug. Assessment of the knockdown after 1 hour, and mortality after 48 hours was carried out.
as §5

Aedes aegypti [5] = assay: whole plant or invertebrate; details: Aedes aegypti, 48 h
Procedure: (§6) The individual wells of six (6) well tissue culture plates were treated with 250 μl of an ethanol solution containing a test compound at a defined concentration. Once the deposits were dry, ten non-blood fed adult female Aedes aegypti or Anopheles stephensi (each between two to five day old) were added to each well, and sustained with a 10% sucrose solution in a cotton wool plug.
(§7) Assessment of the mortality was carried out at 48 hours.
(§8) Each treatment was replicated twice, with the mean mortality recorded.

Anopheles stephensi [6] = assay: whole plant or invertebrate; details: Anopheles stephensi, 48 h
Procedure: as §6, §7, §8

FUMOZ = assay: Example B5: bottle based cross resistance study (CDC bottle assay); type: in vivo; details: Anopheles funestus, 24 h
Procedure: (§9) Based on the “CDC bottle assay” (described at http://www.cdc.gov/malaria/resources/pdf/fsp/ir_manual/ir_cdc_bioassay_en.pdf) 1 ml of ethanol containing a test compound at a defined concentration was added to a 250 ml glass bottle and the bottles were placed on a rolling table to coat the inner surfaces as the solvent evaporated. Once dry, twenty five non-blood fed adult female mosquitoes of the appropriate species and strains (each three day old) were aspirated from the stock culture and gently blown into the exposure bottles. The lid of the bottle was replaced and the bottle placed upright out of direct sun light under standard culture conditions, nominally 28C and 60-80% relative humidity.
(§10) A stopwatch was started, and the assessment of the knock-down were made after 15 minutes and 60 minutes. A mosquito was said to be knocked down if it was unable to stand, following the CDC definition. The bottles were replaced in an upright position when not being assessed.
(§11) After one hour the mosquitoes were carefully removed from the bottle with an aspirator and placed in a recovery cup. The mosquitoes were supplied with a 10% sucrose solution on a cotton wool bung, and stored under culture conditions. Assessments of the mortality were made after 24 hours.
(§12) Each treatment was replicated a minimum of four times, with the mean knockdown or mortality recorded. In each study, a set of bottles was infested with a known insecticide susceptible strain of mosquitoes from the same genera as the resistant strains.

An. Gambiae Kisumu sus = assay: as above; type: in vivo; details: Anopheles gambiae, 24 h
Procedure: as §9, §10, §11, §12

VK7 = assay: as above; type: in vivo; details: Anopheles coluzzii, Table B5b, after 24 hours
Procedure: as §9, §10, §11, §12

[7] = HDPE, polymer 8 to 12 weeks old
[8] = LDPE, polymer 8 to 12 weeks old
[9] = Table B5b, 25 ppm, after 24 hours, FUMOZ
[10] = Table B5b, 25 ppm, after 24 hours, Kisumu sus

SMILES	knock-down (Aedes aegypti [1]; HDPE, polymer 2 to 4 weeks old) [%]	knock-down (Aedes aegypti [1]; HDPE, polymer 6 to 8 weeks old) [%]	knock-down (Aedes aegypti [1]; LDPE, polymer 2 to 4 weeks old) [%]	knock-down (Aedes aegypti [1]; LDPE, polymer 6 to 8 weeks old) [%]	knock-down (Aedes aegypti [1]; PP, polymer 2 to 4 weeks old) [%]	knock-down (Aedes aegypti [1]; PP, polymer 6 to 8 weeks old) [%]	knock-down (Anopheles stephensi [2]; HDPE, polymer 2 to 4 weeks old) [%]	knock-down (Anopheles stephensi [2]; [7]) [%]	knock-down (Anopheles stephensi [2]; LDPE, polymer 2 to 4 weeks old) [%]	knock-down (Anopheles stephensi [2]; [8]) [%]	knock-down (Anopheles stephensi [2]; PP, polymer 2 to 4 weeks old) [%]	knock-down (Anopheles stephensi [2]; PP, polymer 8 to 12 weeks old) [%]	pest or weed control at 20 ppm [3] [%]	mortality at 20 ppm [3] [%]	pest or weed control at 20 ppm [4] [%]	mortality at 20 ppm [4] [%]	mortality at 5 ppm (Aedes aegypti [5]) [%]	mortality at 5 ppm (Anopheles stephensi [6]) [%]	mortality (Aedes aegypti [1]; HDPE, polymer 2 to 4 weeks old) [%]	mortality (Aedes aegypti [1]; HDPE, polymer 6 to 8 weeks old) [%]	other results
CO/C=C(/C(=O)OC)c1ccccc1Oc1ncnc(C(C)(C)C)n1 [Compound 5, Methyl (E)-2-[2-[(4-tert-butyl-1,3,5-triazin-2-yl)oxy]phenyl]-3-methoxy-prop-2-enoate]	33	60	13	85	80	70	100	50	80	70	90	20	100	100	100	100	85	100			
CO/C=C(/C(=O)OC)c1ccccc1Oc1cc(C(F)(F)F)ccn1 [Compound 8, Methyl (E)-2-[2-[[4-(trifluoromethyl)-2-pyridyl]oxy]phenyl]-3-methoxy-prop-2-enoate]	100	100	100	100			100	100	100	90			67	100	100	100	100	100	53	75	mortality (Aedes aegypti [1]; LDPE, polymer 2 to 4 weeks old): 100%; mortality (Aedes aegypti [1]; LDPE, polymer 6 to 8 weeks old): 100%; mortality (Anopheles stephensi [2]; HDPE, polymer 2 to 4 weeks old): 100%; mortality (Anopheles stephensi [2]; [7]): 80%; mortality (Anopheles stephensi [2]; LDPE, polymer 2 to 4 weeks old): 100%; mortality (Anopheles stephensi [2]; [8]): 100%; mortality at 25 ppm (FUMOZ; [9]): 56%; mortality at 25 ppm (An. Gambiae Kisumu sus; [10]): 61%; mortality at 25 ppm (VK7; 24 h): 20%
CO/C=C(/C(=O)OC)c1ccccc1CO/N=C(\C)C(C)C [Compound 12]	97	100	100	95	100	100	100	100	100	30	100	100	100	100	100	100	43	100			
CO/C=C(/C(=O)OC)c1ccccc1Oc1ncc(C(F)(F)F)s1 [Compound 13, Methyl (E)-3-methoxy-2-[2-[5-(trifluoromethyl)thiazol-2-yl]oxyphenyl]prop-2-enoate]	100	100	100	100	100	100	100	90	100	100	100	100	100	100	100	100	78	100	73	65	mortality (Aedes aegypti [1]; LDPE, polymer 2 to 4 weeks old): 93%; mortality (Aedes aegypti [1]; LDPE, polymer 6 to 8 weeks old): 95%; mortality (Aedes aegypti [1]; PP, polymer 2 to 4 weeks old): 87%; mortality (Aedes aegypti [1]; PP, polymer 6 to 8 weeks old): 35%; mortality (Anopheles stephensi [2]; HDPE, polymer 2 to 4 weeks old): 100%; mortality (Anopheles stephensi [2]; [7]): 0%; mortality (Anopheles stephensi [2]; LDPE, polymer 2 to 4 weeks old): 100%; mortality (Anopheles stephensi [2]; [8]): 80%; mortality (Anopheles stephensi [2]; PP, polymer 2 to 4 weeks old): 100%; mortality (Anopheles stephensi [2]; PP, polymer 8 to 12 weeks old): 10%; mortality at 25 ppm (FUMOZ; [9]): 70%; mortality at 25 ppm (An. Gambiae Kisumu sus; [10]): 94%; mortality at 25 ppm (VK7; 24 h): 61%
CO/C=C(/C(=O)OC)c1ccccc1Oc1cc(C(F)(F)C(F)(F)F)ncn1 [Compound 17]													100	100	100	100	5	55			knock-down (Aedes aegypti [1]; LDPE, polymer 4 to 6 weeks old): 100%
CO/C=C(/C(=O)OC)c1ccccc1CO/N=C(\C)OC [Compound 22]	93	95	100	100	100	100	100	90	100	80	100	100	100	100	100	100	100	100			mortality at 25 ppm (FUMOZ): 68%; mortality at 25 ppm (An. Gambiae Kisumu sus): 100%; mortality at 25 ppm (VK7; read-out: Mortality): 96%
